Results published in PubChem BioAssay AID256 (DTP/NCI, 2004).
Values joined by “and” are separate entries in the source; they are usually repeats but may differ in a detail not shown here. Identical values can stand only once. Toxic doses and inconclusive results are not listed.

System: CD2F1 mice, L1210 leukemia ip, survival T/C
Experiment: NCI In Vivo Anticancer Drug Screen. Data for tumor model L1210 Leukemia (intraperitoneal) in CD2F1 (CDF1) mice
Settings: higher = longer survival
In short: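 Tumor-bearing mice (transplanted tumor) were split into treated and vehicle control groups, and the measured endpoint of each treated group was divided by that of its vehicle controls.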

[1] = endpoint: mean survival time, dose: 75.0 mg/kg/injection, schedule: Q01DX001 (ip), vehicle: saline
[2] = endpoint: mean survival time, dose: 150.0 mg/kg/injection, schedule: Q01DX001 (ip), vehicle: saline
[3] = endpoint: mean survival time, dose: 300.0 mg/kg/injection, schedule: Q01DX001 (ip), vehicle: saline
[4] = endpoint: mean survival time, dose: 100.0 mg/kg/injection, schedule: Q04DX003 (ip), vehicle: saline with Tween-80
[5] = endpoint: mean survival time, dose: 200.0 mg/kg/injection, schedule: Q04DX003 (ip), vehicle: saline with Tween-80
[6] = endpoint: mean survival time, dose: 100.0 mg/kg/injection, schedule: Q04DX002 (ip), vehicle: saline with Tween-80
[7] = endpoint: mean survival time, dose: 200.0 mg/kg/injection, schedule: Q04DX002 (ip), vehicle: saline with Tween-80
[8] = endpoint: mean survival time, dose: 100.0 mg/kg/injection, schedule: Q01DX001 (ip), vehicle: saline
[9] = endpoint: mean survival time, dose: 200.0 mg/kg/injection, schedule: Q01DX001 (ip), vehicle: saline
[10] = endpoint: mean survival time, dose: 400.0 mg/kg/injection, schedule: Q04DX002 (ip), vehicle: saline with Tween-80
[11] = endpoint: mean survival time, dose: 400.0 mg/kg/injection, schedule: Q04DX003 (ip), vehicle: saline with Tween-80
[12] = endpoint: mean survival time, dose: 100.0 mg/kg/injection, schedule: Q01DX009 (ip), vehicle: saline with Tween-80
[13] = endpoint: mean survival time, dose: 200.0 mg/kg/injection, schedule: Q01DX009 (ip), vehicle: saline with Tween-80
[14] = endpoint: mean survival time, dose: 400.0 mg/kg/injection, schedule: Q01DX009 (ip), vehicle: saline with Tween-80

CCOC(=O)CCN(C(=O)OCc1ccccc1)N(C)C(=O)OCc1ccccc1
T/C (endpoint: mean survival time, dose: 25.0 mg/kg/injection, schedule: Q04DX003 (ip), vehicle: Klucel (hydroxypropylcellulose) (HPC)): 91 % of control
T/C (endpoint: mean survival time, dose: 50.0 mg/kg/injection, schedule: Q04DX003 (ip), vehicle: Klucel (hydroxypropylcellulose) (HPC)): 94 % of control
T/C (endpoint: mean survival time, dose: 100.0 mg/kg/injection, schedule: Q04DX003 (ip), vehicle: Klucel (hydroxypropylcellulose) (HPC)): 89 % of control
T/C (endpoint: mean survival time, dose: 200.0 mg/kg/injection, schedule: Q04DX003 (ip), vehicle: Klucel (hydroxypropylcellulose) (HPC)): 89 % of control
T/C (endpoint: mean survival time, dose: 400.0 mg/kg/injection, schedule: Q04DX003 (ip), vehicle: Klucel (hydroxypropylcellulose) (HPC)): 100 % of control

COc1nc(NC2OC(CO)C(O)C(O)C2O)cc(=O)n1C (configuration not stated)
T/C (endpoint: median survival time, dose: 12.5 mg/kg/injection, schedule: Q01DX005 (ip), vehicle: saline): 98 % of control
T/C (endpoint: median survival time, dose: 25.0 mg/kg/injection, schedule: Q01DX005 (ip), vehicle: saline): 98 % of control
T/C (endpoint: median survival time, dose: 50.0 mg/kg/injection, schedule: Q01DX005 (ip), vehicle: saline): 100 % of control
T/C (endpoint: median survival time, dose: 100.0 mg/kg/injection, schedule: Q01DX005 (ip), vehicle: saline): 102 % of control
T/C (endpoint: median survival time, dose: 200.0 mg/kg/injection, schedule: Q01DX005 (ip), vehicle: saline): 102 % of control

Cc1c[n+](Cc2ccccc2)ccn1
T/C [1]: 102 % of control
T/C [2]: 102 % of control
T/C [3]: 98 % of control

CCCCCCCCCCCCCC1CCCC(C)N1 (configuration not stated)
T/C (endpoint: mean survival time, dose: 50.0 mg/kg/injection, schedule: Q04DX002 (ip), vehicle: saline with Tween-80): 89 % of control and 94 % of control
T/C [6]: 93 % of control and 94 % of control
T/C [7]: 101 % of control

Nc1ncnc2c1ncn2C1OC(CF)C(O)C1O (configuration not stated)
T/C [8]: 104 % of control
T/C [9]: 98 % of control

COc1ccccc1NC(=O)Oc1ccc(Cl)c(C)c1
T/C [6]: 103 % of control
T/C [7]: 103 % of control
T/C [10]: 96 % of control

N#C/C=C/C#N
T/C (endpoint: mean survival time, dose: 0.15 mg/kg/injection, schedule: Q01DX009 (ip), vehicle: saline): 105 % of control
T/C (endpoint: mean survival time, dose: 0.3 mg/kg/injection, schedule: Q01DX009 (ip), vehicle: saline): 102 % of control
T/C (endpoint: mean survival time, dose: 0.6 mg/kg/injection, schedule: Q01DX009 (ip), vehicle: saline): 102 % of control

Nc1nc2c(ncn2-c2ccc(O)cc2)c(=O)[nH]1
T/C (endpoint: mean survival time, dose: 100.0 mg/kg/injection, schedule: Q01DX001 (ip), vehicle: saline with Tween-80): 96 % of control
T/C (endpoint: mean survival time, dose: 200.0 mg/kg/injection, schedule: Q01DX001 (ip), vehicle: saline with Tween-80): 87 % of control
T/C (endpoint: mean survival time, dose: 400.0 mg/kg/injection, schedule: Q01DX001 (ip), vehicle: saline with Tween-80): 91 % of control

CCOCC(C)(CO)CC(C)CO (configuration not stated)
T/C [8]: 101 % of control
T/C [9]: 104 % of control
T/C (endpoint: mean survival time, dose: 400.0 mg/kg/injection, schedule: Q01DX001 (ip), vehicle: saline): 103 % of control

CNC(=S)C(=S)NC
T/C (endpoint: mean survival time, dose: 6.25 mg/kg/injection, schedule: Q01DX009 (ip), vehicle: saline with Tween-80): 100 % of control
T/C (endpoint: mean survival time, dose: 12.5 mg/kg/injection, schedule: Q01DX009 (ip), vehicle: saline with Tween-80): 97 % of control
T/C (endpoint: mean survival time, dose: 25.0 mg/kg/injection, schedule: Q01DX009 (ip), vehicle: saline with Tween-80): 95 % of control
T/C (endpoint: mean survival time, dose: 50.0 mg/kg/injection, schedule: Q04DX003 (ip), vehicle: saline with Tween-80): 93 % of control

COc1cc2c(c(OC)c1OC)-c1ccc(OC)c(=O)cc1[C@@H](NC(=O)CF)CC2
T/C (endpoint: mean survival time, dose: 0.37 mg/kg/injection, schedule: Q01DX009 (ip), vehicle: saline): 109 % of control

CCOP(=O)(Nc1ccc(F)cc1)OCC
T/C (endpoint: mean survival time, dose: 50.0 mg/kg/injection, schedule: Q01DX001 (ip), vehicle: carboxymethylcellulose (CMC)): 106 % of control
T/C (endpoint: mean survival time, dose: 100.0 mg/kg/injection, schedule: Q01DX001 (ip), vehicle: carboxymethylcellulose (CMC)): 96 % of control
T/C (endpoint: mean survival time, dose: 200.0 mg/kg/injection, schedule: Q01DX001 (ip), vehicle: carboxymethylcellulose (CMC)): 100 % of control
T/C (endpoint: mean survival time, dose: 400.0 mg/kg/injection, schedule: Q01DX001 (ip), vehicle: carboxymethylcellulose (CMC)): 102 % of control

Oc1cc(O)c2c(c1)OC(c1ccc(O)c(O)c1)C(O)C2c1c(O)cc(O)c2c1OC(c1ccc(O)c(O)c1)C(O)C2 (configuration not stated)
T/C (endpoint: mean survival time, dose: 100.0 mg/kg/injection, schedule: Q04DX003 (ip), vehicle: saline): 107 % of control
T/C (endpoint: mean survival time, dose: 200.0 mg/kg/injection, schedule: Q04DX003 (ip), vehicle: saline): 95 % of control
T/C (endpoint: mean survival time, dose: 400.0 mg/kg/injection, schedule: Q04DX003 (ip), vehicle: saline): 104 % of control

O=C(N/C=C\NC(=O)Nc1cccc(Cl)c1)Nc1cccc(Cl)c1
T/C [6]: 90 % of control
T/C [7]: 90 % of control
T/C [10]: 98 % of control

O=C(O)c1ccccc1O.[Fe]
T/C [9]: 112 % of control

C=C(CC)C1(C)C(=O)NC(=O)NC1=O
T/C [1]: 95 % of control
T/C [2]: 97 % of control
T/C [3]: 101 % of control

NC(CCC(=O)NC(=O)OCc1ccccc1)C(=O)O (configuration not stated)
T/C [4]: 93 % of control
T/C [5]: 101 % of control
T/C [11]: 90 % of control

O=C(/C=C(/c1ccccc1)P(=O)(c1ccccc1)c1ccccc1)c1ccccc1
T/C [4]: 98 % of control
T/C [5]: 93 % of control
T/C [11]: 88 % of control

c1ccc2c(c1)[As]=c1ccccc1=[As]2 (configuration not stated)
T/C (endpoint: median survival time, dose: 1.5 mg/kg/injection, schedule: Q01DX009 (ip), vehicle: saline with Tween-80): 108 % of control
T/C (endpoint: median survival time, dose: 3.0 mg/kg/injection, schedule: Q01DX009 (ip), vehicle: saline with Tween-80): 101 % of control
T/C (endpoint: median survival time, dose: 6.0 mg/kg/injection, schedule: Q01DX009 (ip), vehicle: saline with Tween-80): 102 % of control and 104 % of control
T/C (endpoint: median survival time, dose: 12.0 mg/kg/injection, schedule: Q01DX009 (ip), vehicle: saline with Tween-80): 113 % of control and 109 % of control
T/C (endpoint: median survival time, dose: 24.0 mg/kg/injection, schedule: Q01DX009 (ip), vehicle: saline with Tween-80): 106 % of control
T/C (endpoint: median survival time, dose: 48.0 mg/kg/injection, schedule: Q01DX009 (ip), vehicle: saline with Tween-80): 100 % of control

O=[N+]([O-])c1ncn[nH]1
T/C [12]: 111 % of control
T/C [13]: 100 % of control
T/C [14]: 92 % of control

CC1(C)OC2C(/C=N\O)OC(n3cnc4c(N)ncnc43)C2O1 (configuration not stated)
T/C (endpoint: median survival time, dose: 12.5 mg/kg/injection, schedule: Q01DX005 (ip), vehicle: distilled water + Tween-80): 98 % of control
T/C (endpoint: median survival time, dose: 25.0 mg/kg/injection, schedule: Q01DX005 (ip), vehicle: distilled water + Tween-80): 90 % of control
T/C (endpoint: median survival time, dose: 50.0 mg/kg/injection, schedule: Q01DX005 (ip), vehicle: distilled water + Tween-80): 96 % of control
T/C (endpoint: median survival time, dose: 100.0 mg/kg/injection, schedule: Q01DX005 (ip), vehicle: distilled water + Tween-80): 101 % of control
T/C (endpoint: median survival time, dose: 200.0 mg/kg/injection, schedule: Q01DX005 (ip), vehicle: distilled water + Tween-80): 101 % of control

CC(C)(c1ccc(O)cc1)c1ccc(O)cc1
T/C [12]: 102 % of control
T/C [13]: 104 % of control
T/C [14]: 100 % of control

COc1ccc2c(c1)CCn1c(C)c(COC(=O)NC(C)C)c(COC(=O)NC(C)C)c1-2
T/C (endpoint: median survival time, dose: 3.12 mg/kg/injection, schedule: Q01DX009 (ip), vehicle: distilled water + Tween-80): 120 % of control
T/C (endpoint: median survival time, dose: 3.13 mg/kg/injection, schedule: Q01DX009 (ip), vehicle: distilled water + Tween-80): 123 % of control
T/C (endpoint: median survival time, dose: 6.25 mg/kg/injection, schedule: Q01DX009 (ip), vehicle: distilled water + Tween-80): 114 % of control
T/C (endpoint: median survival time, dose: 25.0 mg/kg/injection, schedule: Q01DX009 (ip), vehicle: distilled water + Tween-80): 152 % of control and 157 % of control
T/C (endpoint: median survival time, dose: 50.0 mg/kg/injection, schedule: Q01DX009 (ip), vehicle: distilled water + Tween-80): 114 % of control
